The text below walks through data of ChEMBL document CHEMBL1201862, “PubChem BioAssay data set” (2004).

Test systems include CCRF-CEM; HL-60; 786-0; CAKI-1; SF-539; OVCAR-8; OVCAR-5; SNB-75; OVCAR-4; MOLT-4; A498; SF-268; NCI-H23; SK-MEL-28; K562; NCI-H522; HCT-116; MDA-MB-435; MCF7.
What all share (experiment): inhibition of tumour cell growth, NCI panel, 48 h

Structures are written as SMILES.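 Cultured in 96-well plates, cells were exposed to test compound for 48 hours across five concentrations. At the GI50, growth is halved.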 Calls of active or inactive are those of the source. No stated cut-off is given here; in the data, active = GI50 up to about 1.1 µM and inactive = higher.

Turning to `CC1(c2ccc(F)cc2)C2C(=O)NC(=O)C1C(=O)NC2=O` (stereo not drawn), the GI50 with CCRF-CEM, with HL-60, in the experiment on 786-0, in the experiment with CAKI-1, in the experiment on SF-539 and with OVCAR-8 was > 100 µM (inactive) each time. Besides, the GI50 in the experiment on OVCAR-5, in the experiment on SNB-75, in the experiment on OVCAR-4, in the experiment with MOLT-4, in the experiment on A498 and in the experiment with SF-268 was > 100 µM (inactive) throughout. For the same molecule, the GI50 with NCI-H23, in the experiment on SK-MEL-28, in the experiment on K562 and in the experiment with NCI-H522 was > 100 µM (inactive) in each case.
For `COC(=O)CCC(NC(=S)N/N=C(\C)c1cnc2ccccc2n1)C(=O)OC` (stereo not drawn), the GI50 with CCRF-CEM was 3.29 µM (inactive); with HL-60, 2.33 µM (inactive); in the experiment on 786-0, 43.6 µM (inactive); in the experiment with HCT-116 it was 18.3 µM (inactive); in the experiment with SF-539, 41.8 µM (inactive); in the experiment with OVCAR-8 it was 46.9 µM (inactive). Moreover, the GI50 in the experiment on OVCAR-5 was 16.3 µM (inactive); in the experiment on SNB-75, 47.4 µM (inactive); in the experiment with OVCAR-4, 25.9 µM (inactive); with MOLT-4 it was 15.6 µM (inactive); in the experiment on A498, 92.9 µM (inactive); with SF-268 it was 29.7 µM (inactive). Besides, the GI50 with NCI-H23 was 58.3 µM (inactive); with SK-MEL-28 it was 40.9 µM (inactive); in the experiment on K562, 10.1 µM (inactive); in the experiment on NCI-H522 it was 11.2 µM (inactive).
On to `CCOP(=O)(OCC)C(C(=O)OC)C(=O)C(=O)Nc1c(C)cc(Br)cc1C` (stereo not drawn), for which the GI50 with CCRF-CEM, in the experiment with HL-60, with 786-0, in the experiment on HCT-116, in the experiment on CAKI-1 and in the experiment with SF-539 was > 100 µM (inactive) throughout. In addition, the GI50 in the experiment with OVCAR-8, in the experiment on OVCAR-5, in the experiment on SNB-75, in the experiment on OVCAR-4, in the experiment with MOLT-4 and in the experiment on A498 was > 100 µM (inactive) in each case. For the same molecule, the GI50 in the experiment on SF-268, in the experiment with NCI-H23, with SK-MEL-28, with K562 and with NCI-H522 was > 100 µM (inactive) each time.
Take `CC1(C)N=c2c(ncn2CCO)=C(C(N)=O)N1`: the GI50 with CCRF-CEM, with HL-60, in the experiment with 786-0, in the experiment on HCT-116, with CAKI-1 and in the experiment on SF-539 was > 100 µM (inactive) throughout. Further, the GI50 in the experiment with OVCAR-8, with MDA-MB-435, with OVCAR-5, in the experiment on OVCAR-4, in the experiment with A498 and with SF-268 was > 100 µM (inactive) throughout. The GI50 with MCF7, with NCI-H23, in the experiment on SK-MEL-28, with K562 and with NCI-H522 was > 100 µM (inactive) throughout.
As to `O=C(Cc1ccccc1)N/N=C(\C1=Nc2ccc([N+](=O)[O-])cc2NC1O)C(O)c1ccc([N+](=O)[O-])cc1` (stereo not drawn), the GI50 is 13.8 µM (inactive) with CCRF-CEM; 19.9 µM (inactive) in the experiment with HL-60; > 100 µM (inactive) with 786-0; > 100 µM (inactive) in the experiment with HCT-116; > 100 µM (inactive) with CAKI-1; > 100 µM (inactive) in the experiment with SF-539. Further, the GI50 in the experiment on OVCAR-8 was > 100 µM (inactive); with OVCAR-5 it was > 100 µM (inactive); in the experiment on SNB-75, > 100 µM (inactive); with OVCAR-4 it was > 10 µM (inactive); with A498, > 100 µM (inactive); in the experiment with SF-268, > 100 µM (inactive). In addition, the values for the GI50 in the experiment on NCI-H23, in the experiment on K562 and in the experiment on NCI-H522 were > 100 µM (inactive), 28.2 µM (inactive) and 7.89 µM (inactive), respectively.
Take `COC(=O)C(=O)C(C(C)=O)C(=O)NCc1ccccc1` (stereo not drawn): the GI50 in the experiment on CCRF-CEM is 83.2 µM (inactive); in the experiment with HL-60, > 100 µM (inactive); in the experiment on 786-0 it was > 100 µM (inactive); in the experiment on HCT-116, > 100 µM (inactive); in the experiment with CAKI-1, > 100 µM (inactive); with SF-539, > 100 µM (inactive). The GI50 in the experiment on OVCAR-8, in the experiment with OVCAR-5, with SNB-75, in the experiment with OVCAR-4, with MOLT-4 and in the experiment on A498 was > 100 µM (inactive) throughout. In addition, the GI50 in the experiment with SF-268, in the experiment with NCI-H23, with SK-MEL-28, in the experiment on K562 and in the experiment with NCI-H522 was > 100 µM (inactive) each time.
For the molecule `Cc1cc(N(CCC#N)CCC#N)ccc1/C=C1N=C(/C=C/c2ccccc2)N(c2ccc(S(N)(=O)=O)cc2)C\1=O`, the GI50 in the experiment with CCRF-CEM, in the experiment with HL-60, in the experiment on 786-0, with HCT-116, in the experiment on CAKI-1 and in the experiment with SF-539 was > 100 µM (inactive) throughout. Besides, the GI50 with OVCAR-8, in the experiment with OVCAR-5, in the experiment on SNB-75, with OVCAR-4, in the experiment with MOLT-4 and with A498 was > 100 µM (inactive) throughout. In addition, the GI50 with SF-268, in the experiment with NCI-H23, in the experiment with SK-MEL-28, in the experiment with K562 and with NCI-H522 was > 100 µM (inactive) in each case.
For `CC1=C(C(=O)Nc2cccc(Cl)c2)C(c2ccccc2F)C(C(=O)Nc2cccc(Cl)c2)=C(C)N1`, the GI50 in the experiment on CCRF-CEM was 4.61 µM (inactive); in the experiment with HL-60 it was 3.78 µM (inactive); in the experiment with 786-0, 13.7 µM (inactive); with CAKI-1, 4.99 µM (inactive); in the experiment on SF-539, 13.9 µM (inactive); in the experiment on OVCAR-8 it was 17 µM (inactive). Further, the GI50 in the experiment with OVCAR-5 was 19.3 µM (inactive); in the experiment on SNB-75, 6.79 µM (inactive); in the experiment on OVCAR-4, 5.83 µM (inactive); in the experiment with MOLT-4, 2.51 µM (inactive); in the experiment with A498, 13.9 µM (inactive); in the experiment with SF-268 it was 11.8 µM (inactive). The GI50 in the experiment with NCI-H23 was 12.2 µM (inactive); in the experiment with SK-MEL-28, 10.6 µM (inactive); with K562, 4.79 µM (inactive); in the experiment on NCI-H522, 9.16 µM (inactive).
`N#CC1(C#N)C(C#N)(C#N)C12CCCCCC2`: the GI50 in the experiment on CCRF-CEM is 1.85 µM (inactive); in the experiment on HL-60 it was 3.48 µM (inactive); with 786-0, 6.59 µM (inactive); in the experiment on HCT-116 it was 5.01 µM (inactive); with CAKI-1, 12.2 µM (inactive); in the experiment on SF-539, 13.6 µM (inactive). Besides, the GI50 is 13.2 µM (inactive) with OVCAR-8; 16.4 µM (inactive) in the experiment on OVCAR-5; 22.9 µM (inactive) in the experiment on SNB-75; 16.3 µM (inactive) with OVCAR-4; 5.45 µM (inactive) in the experiment with MOLT-4; 18.5 µM (inactive) in the experiment on A498. For the same molecule, the GI50 in the experiment on SF-268 was 22.5 µM (inactive); with NCI-H23 it was 16 µM (inactive); in the experiment with SK-MEL-28, 8.57 µM (inactive); with K562, 3.1 µM (inactive); in the experiment with NCI-H522, 2.77 µM (inactive).
For the molecule `CC1=NN(c2ccccc2)C(=O)C1=C1SCCS1`, the GI50 was 29.2 µM (inactive) with CCRF-CEM; > 40 µM (inactive) in the experiment on HL-60; > 72.9 µM (inactive) in the experiment on 786-0; > 48 µM (inactive) in the experiment on HCT-116; > 78.9 µM (inactive) with CAKI-1; > 100 µM (inactive) in the experiment on SF-539. Moreover, the GI50 was > 77.6 µM (inactive) in the experiment with OVCAR-8; > 100 µM (inactive) in the experiment on OVCAR-5; > 88.1 µM (inactive) in the experiment with SNB-75; > 100 µM (inactive) in the experiment with OVCAR-4; 15 µM (inactive) with MOLT-4; > 77.1 µM (inactive) with A498. The GI50 in the experiment with SF-268 was > 94.6 µM (inactive); in the experiment with NCI-H23 it was > 100 µM (inactive); in the experiment with SK-MEL-28, > 100 µM (inactive); in the experiment on K562, 43.6 µM (inactive); in the experiment with NCI-H522 it was 43 µM (inactive).
For `CCC1CN2CCc3c([nH]c4ccccc34)C2C[C@@H]1CC(=O)N(C)C` (stereo partly drawn), the GI50 with CCRF-CEM, in the experiment on HL-60, in the experiment with 786-0, in the experiment with HCT-116, in the experiment on SF-539 and in the experiment on OVCAR-8 was > 100 µM (inactive) in each case. The GI50 is > 100 µM (inactive) in the experiment with OVCAR-5; 21.4 µM (inactive) in the experiment with SNB-75; > 100 µM (inactive) in the experiment with OVCAR-4; > 100 µM (inactive) in the experiment on MOLT-4; > 100 µM (inactive) in the experiment with A498; > 100 µM (inactive) in the experiment on SF-268. Also, the GI50 in the experiment with NCI-H23, in the experiment with SK-MEL-28, in the experiment on K562 and with NCI-H522 was > 100 µM (inactive) throughout.
As to `COc1ccc(/C=C\c2cc(OC)c3c(c2)OCO3)c(O)c1O`, the GI50 was 2.98 µM (inactive) in the experiment with CCRF-CEM; 2.8 µM (inactive) in the experiment with HL-60; 3.26 µM (inactive) in the experiment with 786-0; 6.95 µM (inactive) in the experiment with HCT-116; 2.79 µM (inactive) in the experiment with CAKI-1; 2.08 µM (inactive) in the experiment on SF-539. Besides, the GI50 was 5.53 µM (inactive) in the experiment with OVCAR-8; 26.7 µM (inactive) in the experiment with OVCAR-5; 0.0256 µM (active) in the experiment on SNB-75; 4.52 µM (inactive) in the experiment with OVCAR-4; 6.35 µM (inactive) in the experiment with MOLT-4; 8.3 µM (inactive) in the experiment on A498. In addition, the GI50 with SF-268 was 4.47 µM (inactive); in the experiment with NCI-H23, 4.98 µM (inactive); in the experiment on SK-MEL-28, 5.65 µM (inactive); with K562, 4.14 µM (inactive); in the experiment with NCI-H522, 1.7 µM (inactive).
